Laboratory results: US6841535B2, “Peptide-mediated transfection agents and methods of use” (Active Motif, priority 2000, dated 2005)
*1 amine or outer side, *2 acyl side, *3 side chain or, on linkers, in order; H or OH if unused. Where no end group is shown, it is not given here. Cysteamide = C(CS[*:3])N[*:1]

What was measured:
[1] = tested on: mammalian fibroblasts, NIH 3T3 fibroblasts or murine L1210 lymphocytes; assay: Cellular localization of lucifer yellow-linked peptides; format: cell-based; details: 3 min incubation at 10 μM
[2] = tested on: HS-68 and NIH 3T3 cell lines; assay: Peptide delivery by vector peptides (fluorescently labeled peptide B / peptide A); format: cell-based; details: transfection of fluorescently labeled peptide; one micromolar vector peptide; 1 h
Method: (§1) We evaluated the ability of peptides designed according to principles described herein, as well as variants thereof, to deliver peptides and proteins into HS-68 and NIH 3T3 cell lines. Peptide delivery was performed with a 32 mer peptide (peptide B), and in some cases a […] peptide (peptide A). The peptides were fluorescently labeled. Peptides (5.0×10^−8M or 5.0×10^−7M) were incubated with one micromolar vector peptide in cell culture medium in the absence of serum for 30 min. Cultured cells (0.5 to 1.0×10^6) were then overlaid with the preformed peptide/vector peptide complexes in 500 μL DMEM for one hour in the presence or absence of FCS. Complexes were formed prior to addition of FCS to avoid interactions between ep-vector and serum proteins. Following this transfection step, fresh DMEM supplemented with serum was added for another hour. Then cells were extensively washed, fixed and analyzed by fluorescence microscopy.
(§2) The results of the experiments testing the transfection properties of the peptides are presented as a table in which the sequences are aligned for optimal comparison: […]

[3] = tested on: HS-68 and NIH 3T3 cell lines; assay: Protein delivery by vector peptides (GFP); format: cell-based; details: transfection of GFP; incubated with peptide at a molar ratio of 1:20; 1 h
Method: as §1
To investigate protein delivery we tested the delivery into cells of the fluorescent protein GFP. The protein was incubated with peptide at a molar ratio of 1:20, followed by overlay of the complex onto cultured cells. This was followed by incubation for 1 h. Then cells were extensively washed and fixed with formalin before observation.
as §2

[4] = tested on: HS-68 and NIH 3T3 cell lines; assay: Drug delivery by vector peptides (ANS and Bis-ANS); format: cell-based; details: transfection of ANS and Bis-ANS; incubated with peptide at a molar ratio of 1:20; 1 h
Method: For investigation of drug delivery, we used the naphthalene derivatives ANS and Bis-ANS, which have intrinsic fluorescence. The drugs was incubated with peptide at a molar ratio of 1:20, followed by overlay of the complex onto cultured cells. This was followed by incubation for 1 h. Then cells were extensively washed and observed by microscopy.
as §2

[5] = tested on: Acheloplasma laidlawii and Spiroplasma melliferum; details: concentrations much lower than minimal inhibitory concentrations; cited from earlier work
[6] = phosphatidylcholine or phosphatidylserine monolayers; cited from earlier work
[7] = tested on: human fibroblasts (HS-68); assay: Cellular localization of rhodamine-labeled ODN-peptide conjugate; format: cell-based
Method: The first ODN has the sequence d(GGTCTTACTCTCCGTCTCT) (SEQ ID NO:30). It was modified in 5′ by a hexamethylene-bridged pyridyldisulfide and in 3′ by a 2-propanol-3-amino group and labeled with rhodamine. Conjugation was performed by stirring a solution of the oligonucleotide with a three fold excess of peptide for 3 h. […] The target compartment of the conjugate remains to be identified.

Substance | Pep [2] | Pro [3] | Drug [4] | other results
GALFLGWLGAAGSTMGARKKKRKV (Ac-GALFLGWLGAAGSTMGARKKKRKV; not fully specified (C-terminus); printed as GALFLGWLGAAGSTMGARKKKRKV) [[4]] | – | – | – | final localization of lucifer yellow-linked peptide [1]: remains membrane associated
GALFLGWLGAAGSTMGAWSQPKKKRKV (Ac-GALFLGWLGAAGSTMGAWSQPKKKRKV; not fully specified (C-terminus); printed as GALFLGWLGAAGSTMGAWSQPKKKRKV) [[3]] | – | – | – | final localization of lucifer yellow-linked peptide [1]: both localizations, membrane associate and nuclear
KETWWETWWETWSQKKKRKV [Pep-2.9-cya] | 5% | – | – | –
KETWWETWWTEWSQPKKRKV [Pep-2.1-cya] | 80% | 70% | 20% | –
KTWWETWWETWSQPKKRKV [Pep-4.2-cya] | Aggr. | Aggr. | Aggr. | –
Lys Glu Thr Trp Trp Glu Thr Trp Thr Trp Ser Gln Pro Lys Lys Lys Arg Lys Val (Ac-KETWWETWTWSQPKKKRKV-Cysteamide) [Pep-2.4-cya] | 60% | 20-30% | 5% | –
Lys Glu Thr Trp Trp Glu Thr Trp Trp Glu Thr Trp Ser Gln Pro Lys Lys Lys Arg Lys Val (Ac-KETWWETWWETWSQPKKKRKV-Cysteamide) [Pep-2.3-cya] | 60-70% | 50-70% | 30% | –
Lys Glu Thr Trp Trp Glu Thr Trp Trp Thr Glu Ala Ser Gln Pro Lys Lys Arg Lys Val (Ac-KETWWETWWTEASQPKKRKV-Cysteamide) [Pep-2.2-cya] | – | 30% | 5% | –
Lys Glu Thr Trp Trp Glu Thr Trp Trp Thr Glu Trp Ser Gln Pro Lys Lys Lys Arg Lys Val (Ac-KETWWETWWTEWSQPKKKRKV-Cysteamide) [Pep-2-cya] | – | – | 20% | –
Lys Lys Lys Arg Lys Val Lys Glu Thr Trp Trp Glu Thr Trp Trp Glu Thr Val (Ac-KKKRKVKETWWETWWETV-Cysteamide; SMILES CC(=O)N[C@@H](CCCCN)C(=O)N[C@@H](CCCCN)C(=O)N[C@@H](CCCCN)C(=O)N[C@@H](CCCNC(=N)N)C(=O)N[C@@H](CCCCN)C(=O)N[C@H](C(=O)N[C@@H](CCCCN)C(=O)N[C@@H](CCC(=O)O)C(=O)N[C@H](C(=O)N[C@@H](Cc1c[nH]c2ccccc12)C(=O)N[C@@H](Cc1c[nH]c2ccccc12)C(=O)N[C@@H](CCC(=O)O)C(=O)N[C@H](C(=O)N[C@@H](Cc1c[nH]c2ccccc12)C(=O)N[C@@H](Cc1c[nH]c2ccccc12)C(=O)N[C@@H](CCC(=O)O)C(=O)N[C@H](C(=O)N[C@H](C(=O)NCCS)C(C)C)[C@@H](C)O)[C@@H](C)O)[C@@H](C)O)C(C)C) [Pep-2.6-cya] | 30% | 20% | – | –
Lys Lys Lys Arg Lys Val Lys Pro Glu Thr Trp Trp Glu Thr Trp Trp Glu Thr Val (Ac-KKKRKVKPETWWETWWETV-Cysteamide) [Pep-2.7-cya] | 20-30% | 10-20% | – | –
Lys Thr Trp Trp Glu Thr Trp Trp Glu Thr Ala Ser Gln Pro Lys Lys Arg Lys Val (Ac-KTWWETWWETASQPKKRKV-Cysteamide; SMILES CC(=O)N[C@@H](CCCCN)C(=O)N[C@H](C(=O)N[C@@H](Cc1c[nH]c2ccccc12)C(=O)N[C@@H](Cc1c[nH]c2ccccc12)C(=O)N[C@@H](CCC(=O)O)C(=O)N[C@H](C(=O)N[C@@H](Cc1c[nH]c2ccccc12)C(=O)N[C@@H](Cc1c[nH]c2ccccc12)C(=O)N[C@@H](CCC(=O)O)C(=O)N[C@H](C(=O)N[C@@H](C)C(=O)N[C@@H](CO)C(=O)N[C@@H](CCC(N)=O)C(=O)N1CCC[C@H]1C(=O)N[C@@H](CCCCN)C(=O)N[C@@H](CCCCN)C(=O)N[C@@H](CCCNC(=N)N)C(=O)N[C@@H](CCCCN)C(=O)N[C@H](C(=O)NCCS)C(C)C)[C@@H](C)O)[C@@H](C)O)[C@@H](C)O) [Pep-4.1-cya] | Aggr. | Aggr. | Aggr. | –
Lys Trp Trp Glu Thr Trp Trp Glu Thr Trp Ser Gln Pro Lys Lys Lys Arg Lys Val (Ac-KWWETWWETWSQPKKKRKV-Cysteamide) [Pep-2.5-cya] | 50-60% | 5% | 5% | –
MGLGLHLLVLAAALQGAWSQPKKKRKV (Ac-MGLGLHLLVLAAALQGAWSQPKKKRKV; not fully specified (C-terminus); printed as MGLGLHLLVLAAALQGAWSQPKKKRKV) [[1]] | – | – | – | effect on membrane potential and transmembrane pH gradient [5]: decrease; final localization of lucifer yellow-linked peptide [1]: localize in the nuclei of the cells; surface pressure increase [6]: ~15 mN/m
Tyr Gly Phe Lys Lys Arg Arg Gln Pro Thr Trp Trp Glu Thr Trp Trp Thr Glu (Ac-YGFKKRRQPTWWETWWTE-Cysteamide) [Pep-1.1-cya] | 80% | 60% | 5% | –
Tyr Gly Phe Lys Lys Arg Arg Gln Thr Trp Trp Glu Thr Trp Trp Thr Glu (Ac-YGFKKRRQTWWETWWTE-Cysteamide) [Pep-1.2-cya] | 80% | 80-90% | 5% | –
Tyr Gly Phe Lys Lys Phe Arg Lys Pro Trp Thr Trp Trp Glu Thr Trp Trp Thr Glu (Ac-YGFKKFRKPWTWWETWWTE-Cysteamide; SMILES CC(=O)N[C@@H](Cc1ccc(O)cc1)C(=O)NCC(=O)N[C@@H](Cc1ccccc1)C(=O)N[C@@H](CCCCN)C(=O)N[C@@H](CCCCN)C(=O)N[C@@H](Cc1ccccc1)C(=O)N[C@@H](CCCNC(=N)N)C(=O)N[C@@H](CCCCN)C(=O)N1CCC[C@H]1C(=O)N[C@@H](Cc1c[nH]c2ccccc12)C(=O)N[C@H](C(=O)N[C@@H](Cc1c[nH]c2ccccc12)C(=O)N[C@@H](Cc1c[nH]c2ccccc12)C(=O)N[C@@H](CCC(=O)O)C(=O)N[C@H](C(=O)N[C@@H](Cc1c[nH]c2ccccc12)C(=O)N[C@@H](Cc1c[nH]c2ccccc12)C(=O)N[C@H](C(=O)N[C@@H](CCC(=O)O)C(=O)NCCS)[C@@H](C)O)[C@@H](C)O)[C@@H](C)O) [Pep-3-cya] | 50% | 5% | 50-70% | –
d(GGTCTTACTCTCCGTCTCT) (DNA, backbone not given here; 5' hexamethylene pyridyldisulfide, 3' 2-propanol-3-amino, rhodamine label, peptide conjugated) [first ODN] | – | – | – | cellular localization of the conjugate ([7]; ODN conjugated to peptide, 5 min incubation): clearly cytoplasmic but not nuclear; cellular internalization of the free oligonucleotide ([7]; free, not conjugated): no spontaneous cellular internalization could be detected
